Counter-ions that a name gives are not always drawn.
Key:
[1] = target: T1, Furin (108-574-Tev-Flag-His) enzyme (Homo sapiens, UniProt P09958); test: Furin enzyme assay; format: biochemical
T1 construct: Furin (108-574-Tev-Flag-His) enzyme was expressed and purified from CHO cells; TEV cleavage site (C); FLAG (C); His (C); made in house; host or cells: CHO cells
How it was run: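 Compounds ran as 11-point threefold dilutions (0.00017–10 μM final) against 40 pM furin, purified from CHO cells, for 2 h at room temperature. Buffer: 100 mM HEPES pH7.5 with 1 mM CaCl2 and 0.005% Triton X-100. Envision readout. Four-parameter curve gives pXC50.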

[2] = target: T2, furin (endogenous protease) in U20S cells (Homo sapiens, UniProt P09958); test: Furin cell-based assay (image-based, Golgi-targeted GFP with BMP10 furin/PCSK cleavage site); conditions: 24-hour incubation, read-out: furin golgi cell pXC50 (converted);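 also: Read-out is mean GFP fluorescence of Golgi puncta per cell by high-content imaging, retained when furin inhibited, over an eleven-point 0.00017–10 µM series, four-parameter fit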
T2 construct: the endogenous protease cleaves GFP; endogenous in cells; host or cells: U2OS cells transduced with a BacMam reporter
T2 sequence (P09958 108-794): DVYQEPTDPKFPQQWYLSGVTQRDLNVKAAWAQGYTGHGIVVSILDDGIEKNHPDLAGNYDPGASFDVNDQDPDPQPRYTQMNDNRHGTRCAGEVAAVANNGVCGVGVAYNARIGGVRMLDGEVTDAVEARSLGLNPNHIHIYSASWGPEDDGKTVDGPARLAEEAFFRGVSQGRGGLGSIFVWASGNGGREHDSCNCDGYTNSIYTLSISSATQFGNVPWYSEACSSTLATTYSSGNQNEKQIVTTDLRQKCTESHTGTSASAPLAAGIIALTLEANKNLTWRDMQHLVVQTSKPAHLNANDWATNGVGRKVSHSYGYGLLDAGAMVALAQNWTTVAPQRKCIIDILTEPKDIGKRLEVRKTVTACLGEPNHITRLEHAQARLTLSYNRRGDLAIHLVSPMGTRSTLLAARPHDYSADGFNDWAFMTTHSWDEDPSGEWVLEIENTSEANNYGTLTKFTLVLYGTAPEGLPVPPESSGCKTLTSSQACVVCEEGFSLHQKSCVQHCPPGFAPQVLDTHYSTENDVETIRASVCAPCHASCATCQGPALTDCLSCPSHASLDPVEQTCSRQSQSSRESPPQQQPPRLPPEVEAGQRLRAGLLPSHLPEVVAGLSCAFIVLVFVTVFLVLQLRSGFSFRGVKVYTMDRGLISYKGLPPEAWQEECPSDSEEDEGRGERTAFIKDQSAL

T1 sequence (P09958 108-574): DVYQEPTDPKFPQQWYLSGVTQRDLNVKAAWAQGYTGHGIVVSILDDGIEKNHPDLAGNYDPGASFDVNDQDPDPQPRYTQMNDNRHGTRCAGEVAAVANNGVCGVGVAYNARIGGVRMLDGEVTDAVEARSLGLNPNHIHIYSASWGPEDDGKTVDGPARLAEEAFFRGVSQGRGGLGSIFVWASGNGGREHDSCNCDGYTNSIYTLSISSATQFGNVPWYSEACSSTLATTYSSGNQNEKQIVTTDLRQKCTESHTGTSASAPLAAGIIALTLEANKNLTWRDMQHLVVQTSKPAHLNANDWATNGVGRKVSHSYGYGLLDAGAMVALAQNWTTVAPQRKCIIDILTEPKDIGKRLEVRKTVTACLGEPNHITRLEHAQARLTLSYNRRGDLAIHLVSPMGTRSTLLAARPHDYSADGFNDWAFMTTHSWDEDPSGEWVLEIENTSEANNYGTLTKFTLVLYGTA

SMILES	furin enzyme pIC50 [1]	EC50 [2] [nM]
CCC(=O)NCC1CCN(Cc2cc(Oc3cnc(N4CCN(CCC(C)C(=O)O)CC4)cn3)nc(-c3cc(Cl)cc(Cl)c3)c2)CC1 (centres unmarked) [Example 392, 4-(4-(5-((6-(3,5-dichlorophenyl)-4-((4-(propionamidomethyl)piperidin-1-yl)methyl)pyridin-2-yl)oxy)pyrazin-2-yl)piperazin-1-yl)-2-methylbutanoic acid]	9	15.8
CC(=O)NCC1CCN(Cc2cc(Oc3cnc(N4CCN(C(C)CO)CC4)cn3)nc(-c3cc(Cl)cc(Cl)c3)c2)CC1 (centres unmarked) [Example 393, N-((1-((2-(3,5-dichlorophenyl)-6-((5-(4-(1-hydroxypropan-2-yl)piperazin-1-yl)pyrazin-2-yl)oxy)pyridin-4-yl)methyl)piperidin-4-yl)methyl)acetamide]	9.2	2.51
CNC(=O)NCC1CCN(Cc2cc(Oc3cnc(N4CCN(C)CC4)cn3)nc(-c3cc(Cl)cc(Cl)c3)c2)CC1 [Example 394, 1-((1-((2-(3,5-dichlorophenyl)-6-((5-(4-methylpiperazin-1-yl)pyrazin-2-yl)oxy)pyridin-4-yl)methyl)piperidin-4-yl)methyl)-3-methylurea]	9	6.31
CC(=O)NCC1CCN(Cc2cc(Oc3cnc(N4CCN(CCC(C)C(=O)O)CC4)cn3)nc(-c3cc(Cl)cc(Cl)c3)c2)CC1 (centres unmarked) [Example 396, 4-(4-(5-((4-((4-(acetamidomethyl)piperidin-1-yl)methyl)-6-(3,5-dichlorophenyl)pyridin-2-yl)oxy)pyrazin-2-yl)piperazin-1-yl)-2-methylbutanoic acid]	10.3	10
CN1CCCN(c2ncc(Oc3cc(CN4CC[C@@H]5[C@H](CC4)[C@H]5C(=O)O)cc(-c4cc(Cl)cc(Cl)c4)n3)cn2)CC1 [Example 397, (1R,7S,8r)-4-((2-(3,5-Dichlorophenyl)-6-((2-(4-methyl-1,4-diazepan-1-yl)pyrimidin-5-yl)oxy)pyridin-4-yl)methyl)-4-azabicyclo[5.1.0]octane-8-carboxylic acid, 4 hydrochloride]	9	25.1
CN1C2CCC1CN(c1ncc(Oc3cc(CN4CCC(CC(=O)O)CC4)cc(-c4cc(Cl)cc(Cl)c4)n3)cn1)C2 [Example 398, 2-(1-((2-(3,5-dichlorophenyl)-6-((2-(8-methyl-3,8-diazabicyclo[3.2.1]octan-3-yl)pyrimidin-5-yl)oxy)pyridin-4-yl)methyl)piperidin-4-yl)acetic acid]	8.9	6.31
O=C(O)CC1CCN(Cc2cc(Oc3cnc(N4CCNCC(F)C4)nc3)nc(-c3cc(Cl)cc(Cl)c3)c2)CC1 (centres unmarked) [Example 399, 2-(1-((2-(3,5-dichlorophenyl)-6-((2-(6-fluoro-1,4-diazepan-1-yl)pyrimidin-5-yl)oxy)pyridin-4-yl)methyl)piperidin-4-yl)acetic acid]	8.8	39.8

Results, then the compound that gave them:

furin enzyme pIC50 [1]	EC50 [2] [nM]	SMILES
8.4	63.1	Cc1nc(N2CCN(C)CC2)ccc1Oc1nc(-c2cc(Cl)cc(Cl)c2)cc(CN2CCC(CC(=O)O)CC2)c1F [Example 383, 2-(1-((6-(3,5-dichlorophenyl)-3-fluoro-2-((2-methyl-6-(4-methylpiperazin-1-yl)pyridin-3-yl)oxy)pyridin-4-yl)methyl)piperidin-4-yl)acetic acid]
8.4	25.1	CN1CCN(c2ccc(Oc3nc(-c4cc(Cl)cc(Cl)c4)cc(CN4CCC(CC(=O)O)CC4)c3F)nn2)CC1 [Example 384, 2-(1-((6-(3,5-dichlorophenyl)-3-fluoro-2-((6-(4-methylpiperazin-1-yl)pyridazin-3-yl)oxy)pyridin-4-yl)methyl)piperidin-4-yl)acetic acid]
8.4	12.6	COC(=O)CCN1CCN(c2ccc(Oc3cc(CN4CCC(CNC(C)=O)CC4)cc(-c4cc(Cl)cc(Cl)c4)n3)cn2)CC1 [Example 385, Methyl 3-(4-(5-((4-((4-(Acetamidomethyl)piperidin-1-yl)methyl)-6-(3,5-dichlorophenyl)pyridin-2-yl)oxy)pyridin-2-yl)piperazin-1-yl)propanoate]
8.4	10	Cc1c(CN2CCC(CC(=O)O)CC2)cc(-c2cc(Cl)cc(Cl)c2)nc1Oc1ccc(N2CCN(C)CC2)nc1 [Example 386, 2-(1-((6-(3,5-Dichlorophenyl)-3-methyl-2-((6-(4-methylpiperazin-1-yl)pyridin-3-yl)oxy)pyridin-4-yl)methyl)piperidin-4-yl)acetic acid, 4 hydrochloride]
8.5	25.1	O=C(O)CC1CCN(Cc2cc(Oc3cnc(N4CCN(Cc5cnn[nH]5)CC4)nc3)nc(-c3cc(Cl)cc(Cl)c3)c2)CC1 [Example 387, 2-(1-((2-((2-(4-((1H-1,2,3-Triazol-5-yl)methyl)piperazin-1-yl)pyrimidin-5-yl)oxy)-6-(3,5-dichlorophenyl)pyridin-4-yl)methyl)piperidin-4-yl)acetic acid]
8.1	50.1	CN1CCN(c2ncc(N(C)c3cc(CN4CCC(CC(=O)O)CC4)cc(-c4cc(Cl)cc(Cl)c4)n3)cn2)CC1 [Example 388, 2-(1-((2-(3,5-Dichlorophenyl)-6-(methyl(2-(4-methylpiperazin-1-yl)pyrimidin-5-yl)amino)pyridin-4-yl)methyl)piperidin-4-yl)acetic acid, 4 hydrochloride]
8.2	63.1	CCN(c1cnc(N2CCN(C)CC2)nc1)c1cc(CN2CCC(CC(=O)O)CC2)cc(-c2cc(Cl)cc(Cl)c2)n1 [Example 389, 2-(1-((2-(3,5-Dichlorophenyl)-6-(ethyl(2-(4-methylpiperazin-1-yl)pyrimidin-5-yl)amino)pyridin-4-yl)methyl)piperidin-4-yl)acetic acid]
8.7	6.31	CC(=O)NCC1CCN(Cc2cc(Oc3cnc(N4CCN(CCC(N)=O)CC4)cn3)nc(-c3cc(Cl)cc(Cl)c3)c2)CC1 [Example 391, 3-(4-(5-((4-((4-(acetamidomethyl)piperidin-1-yl)methyl)-6-(3,5-dichlorophenyl)pyridin-2-yl)oxy)pyrazin-2-yl)piperazin-1-yl)propanamide]
9.2	31.6	COC(=O)NCC1CCN(Cc2cc(Oc3cnc(N4CCN(C)CC4)cn3)nc(-c3cc(Cl)cc(Cl)c3)c2)CC1 [Example 395, methyl ((1-((2-(3,5-dichlorophenyl)-6-((5-(4-methylpiperazin-1-yl)pyrazin-2-yl)oxy)pyridin-4-yl)methyl)piperidin-4-yl)methyl)carbamate]

— US11773078B2, “Furin inhibitors” (Glaxosmithkline Intellectual Property Development Limited, priority 2018, dated 2023)
